# Measurements published in patent US20260232767A1, “INTERLEUKIN-23 RECEPTOR ANTAGONIST PEPTIDES FOR USE IN THE TREATMENT OF PSORIASIS” (Janssen Pharmaceutica NV, priority 2023, published 2026).
# Test system: subjects with moderate-to-severe plaque psoriasis
# Experiment: Hematology and chemistry laboratory values by CTCAE grade
# Format: in vivo, human
# Details: through Week 56
# Text: The proportion of participants who discontinued study intervention due to one or more AEs was low (n=4). All events were singular in nature with no apparent dose-dependent increase (Table 48 and Table 52). The number of participants with abnormal hematology and chemistry laboratory values with CTCAE toxicity grade≥3 were low through the end of the study (Table 43 through Table 46). There was no apparent dose-dependent increase in laboratory abnormality occurrences.
smiles,measurement,setting,value
"CC(=O)NCCCC[C@@H]1NC(=O)[C@H](Cc2c[nH]c3c(C)cccc23)NC(=O)[C@H]([C@@H](C)O)NC(=O)[C@H](CC(N)=O)NC(=O)[C@@H](NC(C)=O)C(C)(C)SSC(C)(C)[C@@H](C(=O)N[C@@H](Cc2ccc(OCCN)cc2)C(=O)N[C@@H](Cc2ccc3ccccc3c2)C(=O)NC2(C(=O)N[C@@H](CCC(=O)O)C(=O)N[C@@H](CC(N)=O)C(=O)N[C@@H](Cc3cccnc3)C(=O)N(C)CC(N)=O)CCOCC2)NC1=O [IL-23 receptor antagonist peptide, Ac-[Pen]*-N-T-[W(7-Me)]-[Lys(Ac)]-[Pen]*-Phe[4-(2-aminoethoxy)]-[2-Nal]-[THP]-E-N-[3-Pal]-Sarc-NH2 (*[Pen]-[Pen]* formdisulfidebond)]",Creatinine (increased): Subjects with Grade 3,100 mg BID,0
same,Creatinine (increased): Subjects with Grade 4,100 mg BID,0
same,Gamma Glutamyl Transferase (increased): Subjects with Grade 2,100 mg BID,0
same,Gamma Glutamyl Transferase (increased): Subjects with Grade 3,100 mg BID,0
same,Gamma Glutamyl Transferase (increased): Subjects with Grade 4,100 mg BID,0
same,Glucose (decreased): Subjects with Grade 2,100 mg BID,0
same,Glucose (decreased): Subjects with Grade 3,100 mg BID,0
same,Glucose (decreased): Subjects with Grade 4,100 mg BID,0
same,Hemoglobin (g/L) (decreased): subjects with Grade 2,100 mg BID,0
same,Hemoglobin (g/L) (decreased): subjects with Grade 3,100 mg BID,0
same,Hemoglobin (g/L) (decreased): subjects with Grade 4,100 mg BID,0
same,Hemoglobin (g/L) (increased): subjects with Grade 2,100 mg BID,0
same,Hemoglobin (g/L) (increased): subjects with Grade 3,100 mg BID,0
same,Hemoglobin (g/L) (increased): subjects with Grade 4,100 mg BID,0
same,Lymphocytes (×10^9/L) (decreased): subjects with Grade 2,100 mg BID,0
same,Lymphocytes (×10^9/L) (decreased): subjects with Grade 3,100 mg BID,0
same,Lymphocytes (×10^9/L) (decreased): subjects with Grade 4,100 mg BID,0
same,Lymphocytes (×10^9/L) (increased): subjects with Grade 1,100 mg BID,0
same,Lymphocytes (×10^9/L) (increased): subjects with Grade 2,100 mg BID,0
same,Lymphocytes (×10^9/L) (increased): subjects with Grade 3,100 mg BID,0
same,Lymphocytes (×10^9/L) (increased): subjects with Grade 4,100 mg BID,0
same,Lymphocytes (×10^9/L) (increased): subjects with postbaseline maximum toxicity grade >0,100 mg BID,0
same,Magnesium (decreased): Subjects with Grade 1,100 mg BID,0
same,Magnesium (decreased): Subjects with Grade 2,100 mg BID,0
same,Magnesium (decreased): Subjects with Grade 3,100 mg BID,0
same,Magnesium (decreased): Subjects with Grade 4,100 mg BID,0
same,Magnesium (decreased): Subjects with postbaseline maximum toxicity grade >0,100 mg BID,0
same,Magnesium (increased): Subjects with Grade 2,100 mg BID,0
same,Magnesium (increased): Subjects with Grade 3,100 mg BID,0
same,Magnesium (increased): Subjects with Grade 4,100 mg BID,0
same,Neutrophils (×10^9/L) (decreased): subjects with Grade 3,100 mg BID,0
same,Neutrophils (×10^9/L) (decreased): subjects with Grade 4,100 mg BID,0
same,Platelets (×10^9/L) (decreased): subjects with Grade 2,100 mg BID,0
same,Platelets (×10^9/L) (decreased): subjects with Grade 3,100 mg BID,0
same,Platelets (×10^9/L) (decreased): subjects with Grade 4,100 mg BID,0
same,Potassium (decreased): Subjects with Grade 1,100 mg BID,0
same,Potassium (decreased): Subjects with Grade 2,100 mg BID,0
same,Potassium (decreased): Subjects with Grade 3,100 mg BID,0
same,Potassium (decreased): Subjects with Grade 4,100 mg BID,0
same,Potassium (decreased): Subjects with postbaseline maximum toxicity grade >0,100 mg BID,0
same,Potassium (increased): Subjects with Grade 1,100 mg BID,5
same,Potassium (increased): Subjects with Grade 2,100 mg BID,0
same,Potassium (increased): Subjects with Grade 3,100 mg BID,0
same,Potassium (increased): Subjects with Grade 4,100 mg BID,0
same,Potassium (increased): Subjects with postbaseline maximum toxicity grade >0,100 mg BID,5
same,Sodium (decreased): Subjects with Grade 1,100 mg BID,0
same,Sodium (decreased): Subjects with Grade 2,100 mg BID,0
same,Sodium (decreased): Subjects with Grade 3,100 mg BID,0
same,Sodium (decreased): Subjects with Grade 4,100 mg BID,0
same,Sodium (decreased): Subjects with postbaseline maximum toxicity grade >0,100 mg BID,0
same,Sodium (increased): Subjects with Grade 2,100 mg BID,0
same,Sodium (increased): Subjects with Grade 3,100 mg BID,0
same,Sodium (increased): Subjects with Grade 4,100 mg BID,0
same,Total Bilirubin (increased): Subjects with Grade 2,100 mg BID,0
same,Total Bilirubin (increased): Subjects with Grade 3,100 mg BID,0
same,Total Bilirubin (increased): Subjects with Grade 4,100 mg BID,0
same,Triglycerides (increased): Subjects with Grade 4,100 mg BID,0
same,WBC (×10^9/L) (decreased): subjects with Grade 2,100 mg BID,0
same,WBC (×10^9/L) (decreased): subjects with Grade 3,100 mg BID,0
same,WBC (×10^9/L) (decreased): subjects with Grade 4,100 mg BID,0
same,WBC (×10^9/L) (increased): subjects with Grade 1,100 mg BID,0
same,WBC (×10^9/L) (increased): subjects with Grade 2,100 mg BID,0
same,WBC (×10^9/L) (increased): subjects with Grade 3,100 mg BID,0
same,WBC (×10^9/L) (increased): subjects with Grade 4,100 mg BID,0
same,WBC (×10^9/L) (increased): subjects with postbaseline maximum toxicity grade >0,100 mg BID,0
same,Alanine Aminotransferase (increased): Subjects with Grade 1,100 mg QD,12
same,Alanine Aminotransferase (increased): Subjects with Grade 3,100 mg QD,0
same,Alanine Aminotransferase (increased): Subjects with Grade 4,100 mg QD,0
same,Albumin (decreased): Subjects with Grade 1,100 mg QD,0
same,Albumin (decreased): Subjects with Grade 2,100 mg QD,0
same,Albumin (decreased): Subjects with Grade 3,100 mg QD,0
same,Albumin (decreased): Subjects with Grade 4,100 mg QD,0
same,Albumin (decreased): Subjects with postbaseline maximum toxicity grade >0,100 mg QD,0
same,Alkaline Phosphatase (increased): Subjects with Grade 2,100 mg QD,0
same,Alkaline Phosphatase (increased): Subjects with Grade 3,100 mg QD,0
same,Alkaline Phosphatase (increased): Subjects with Grade 4,100 mg QD,0
same,Aspartate Aminotransferase (increased): Subjects with Grade 1,100 mg QD,9
same,Aspartate Aminotransferase (increased): Subjects with Grade 3,100 mg QD,0
same,Aspartate Aminotransferase (increased): Subjects with Grade 4,100 mg QD,0
same,Aspartate Aminotransferase (increased): Subjects with postbaseline maximum toxicity grade >0,100 mg QD,10
same,Calcium corrected (decreased): Subjects with Grade 2,100 mg QD,0
same,Calcium corrected (decreased): Subjects with Grade 3,100 mg QD,0
same,Calcium corrected (decreased): Subjects with Grade 4,100 mg QD,0
same,Calcium corrected (increased): Subjects with Grade 2,100 mg QD,0
same,Calcium corrected (increased): Subjects with Grade 3,100 mg QD,0
same,Calcium corrected (increased): Subjects with Grade 4,100 mg QD,0
same,Cholesterol (increased): Subjects with Grade 1,100 mg QD,0
same,Cholesterol (increased): Subjects with Grade 3,100 mg QD,0
same,Cholesterol (increased): Subjects with Grade 4,100 mg QD,0
same,Creatine Kinase (increased): Subjects with Grade 2,100 mg QD,0
same,Creatine Kinase (increased): Subjects with Grade 3,100 mg QD,0
same,Creatinine (increased): Subjects with Grade 2,100 mg QD,0
same,Creatinine (increased): Subjects with Grade 3,100 mg QD,0
same,Creatinine (increased): Subjects with Grade 4,100 mg QD,0
same,Gamma Glutamyl Transferase (increased): Subjects with Grade 1,100 mg QD,5
same,Gamma Glutamyl Transferase (increased): Subjects with Grade 2,100 mg QD,0
same,Gamma Glutamyl Transferase (increased): Subjects with Grade 3,100 mg QD,0
same,Gamma Glutamyl Transferase (increased): Subjects with Grade 4,100 mg QD,0
same,Gamma Glutamyl Transferase (increased): Subjects with postbaseline maximum toxicity grade >0,100 mg QD,5
same,Glucose (decreased): Subjects with Grade 3,100 mg QD,0
same,Glucose (decreased): Subjects with Grade 4,100 mg QD,0
same,Hemoglobin (g/L) (decreased): subjects with Grade 2,100 mg QD,0
same,Hemoglobin (g/L) (decreased): subjects with Grade 3,100 mg QD,0
same,Hemoglobin (g/L) (decreased): subjects with Grade 4,100 mg QD,0
same,Hemoglobin (g/L) (increased): subjects with Grade 1,100 mg QD,0
same,Hemoglobin (g/L) (increased): subjects with Grade 2,100 mg QD,0
same,Hemoglobin (g/L) (increased): subjects with Grade 3,100 mg QD,0
same,Hemoglobin (g/L) (increased): subjects with Grade 4,100 mg QD,0
same,Hemoglobin (g/L) (increased): subjects with postbaseline maximum toxicity grade >0,100 mg QD,0
same,Lymphocytes (×10^9/L) (decreased): subjects with Grade 3,100 mg QD,0
same,Lymphocytes (×10^9/L) (decreased): subjects with Grade 4,100 mg QD,0
same,Lymphocytes (×10^9/L) (increased): subjects with Grade 1,100 mg QD,0
same,Lymphocytes (×10^9/L) (increased): subjects with Grade 3,100 mg QD,0
same,Lymphocytes (×10^9/L) (increased): subjects with Grade 4,100 mg QD,0
same,Magnesium (decreased): Subjects with Grade 2,100 mg QD,0
same,Magnesium (decreased): Subjects with Grade 3,100 mg QD,0
same,Magnesium (decreased): Subjects with Grade 4,100 mg QD,0
same,Magnesium (increased): Subjects with Grade 2,100 mg QD,0
same,Magnesium (increased): Subjects with Grade 3,100 mg QD,0
same,Magnesium (increased): Subjects with Grade 4,100 mg QD,0
same,Neutrophils (×10^9/L) (decreased): subjects with Grade 3,100 mg QD,0
same,Neutrophils (×10^9/L) (decreased): subjects with Grade 4,100 mg QD,0
same,Platelets (×10^9/L) (decreased): subjects with Grade 2,100 mg QD,0
same,Platelets (×10^9/L) (decreased): subjects with Grade 3,100 mg QD,0
same,Platelets (×10^9/L) (decreased): subjects with Grade 4,100 mg QD,0
same,Potassium (decreased): Subjects with Grade 1,100 mg QD,0
same,Potassium (decreased): Subjects with Grade 3,100 mg QD,0
same,Potassium (decreased): Subjects with Grade 4,100 mg QD,0
same,Potassium (increased): Subjects with Grade 1,100 mg QD,0
same,Potassium (increased): Subjects with Grade 3,100 mg QD,0
same,Potassium (increased): Subjects with Grade 4,100 mg QD,0
same,Sodium (decreased): Subjects with Grade 1,100 mg QD,0
same,Sodium (decreased): Subjects with Grade 2,100 mg QD,0
same,Sodium (decreased): Subjects with Grade 3,100 mg QD,0
same,Sodium (decreased): Subjects with Grade 4,100 mg QD,0
same,Sodium (decreased): Subjects with postbaseline maximum toxicity grade >0,100 mg QD,0
same,Sodium (increased): Subjects with Grade 2,100 mg QD,0
same,Sodium (increased): Subjects with Grade 3,100 mg QD,0
same,Sodium (increased): Subjects with Grade 4,100 mg QD,0
same,Total Bilirubin (increased): Subjects with Grade 1,100 mg QD,7
same,Total Bilirubin (increased): Subjects with Grade 2,100 mg QD,0
same,Total Bilirubin (increased): Subjects with Grade 3,100 mg QD,0
same,Total Bilirubin (increased): Subjects with Grade 4,100 mg QD,0
same,Total Bilirubin (increased): Subjects with postbaseline maximum toxicity grade >0,100 mg QD,7
same,Triglycerides (increased): Subjects with Grade 3,100 mg QD,0
same,Triglycerides (increased): Subjects with Grade 4,100 mg QD,0
same,Triglycerides (increased): Subjects with postbaseline maximum toxicity grade >0,100 mg QD,5
same,WBC (×10^9/L) (decreased): subjects with Grade 3,100 mg QD,0
same,WBC (×10^9/L) (decreased): subjects with Grade 4,100 mg QD,0
same,WBC (×10^9/L) (decreased): subjects with postbaseline maximum toxicity grade >0,100 mg QD,5
same,WBC (×10^9/L) (increased): subjects with Grade 1,100 mg QD,0
